Test results published in patent US20230227449A1, “AMIDOPYRIMIDONE DERIVATIVES” (Hoffmann-La Roche Inc., priority 2020, published 2023).

Biological target: Recombinant human Mat2a (Homo sapiens, UniProt P31153)
Assay: Determination of Mat2A activity (384 well absorbance-based assay, Biomol Green)
Assay type: biochemical
Details: 12.5 nM Mat2A, 100 μM ATP and Methionine, 2% DMSO, 120 minutes at RT, absorbance at 635 nm
Method: Determination of Mat2A activity
Measurement of Mat2A inhibition is performed in 384 well format absorbance-based assay. Recombinant human Mat2a (12.5 nM) and serial diluted compounds in DMSO (range of concentrations from […] to 508 pM) or controls (DMSO) are incubated for 15 minutes at room temperature (RT) in assay buffer containing 50 mM HEPES pH 7.5, 50 mM KCl, 50 mM MgCl2, 0.01% Tween 20 and 10 mM DTT. The reaction is initiated by the addition of the combined substrates ATP and Methionine, each at a final concentration of 100 μM. Final assay condition are 12.5 nM Mat2A, 100 μM ATP and Methionine Substrates and 2% DMSO. After 120 minutes of incubation at RT, the reaction is stopped by the addition of Biomol Green. The absorbance signal is measured at λ=635 nm with a multiplate reader (BMG Pherastar reader or equivalent) after 30 min of equilibration at RT.

Chain of Recombinant human Mat2a (P31153 whole entry): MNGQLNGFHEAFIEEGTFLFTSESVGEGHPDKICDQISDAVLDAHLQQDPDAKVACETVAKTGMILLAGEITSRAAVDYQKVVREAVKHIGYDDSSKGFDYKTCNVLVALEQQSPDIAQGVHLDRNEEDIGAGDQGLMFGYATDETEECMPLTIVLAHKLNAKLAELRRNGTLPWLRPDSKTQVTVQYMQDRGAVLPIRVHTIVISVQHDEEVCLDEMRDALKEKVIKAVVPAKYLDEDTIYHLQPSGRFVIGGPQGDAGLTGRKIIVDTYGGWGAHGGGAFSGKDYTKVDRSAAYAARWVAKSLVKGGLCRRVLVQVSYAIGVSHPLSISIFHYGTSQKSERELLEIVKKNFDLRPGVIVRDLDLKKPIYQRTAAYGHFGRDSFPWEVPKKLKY

| IC50 | SMILES |
| --- | --- |
| 14 nM | Nc1nc(=O)n([C@@H]2CCCOC2)c2nc([C@@H]3C[C@H]3F)ccc12 (mixture of isomers) [Example 49, 4-amino-7-[(1SR,2RS)-2-fluorocyclopropyl]-1-[(3R)-tetrahydropyran-3-yl]pyrido[2,3-d]pyrimidin-2-one] |
| 18 nM | Cc1ncccc1-n1c(=O)nc(N)c2ccc([C@@H]3C[C@H]3C)nc21 (racemic) [Example 23, 4-amino-7-((1RS,2RS)-2-methylcyclopropyl)-1-(2-methylpyridin-3-yl)pyrido[2,3-d]pyrimidin-2(1H)-one] |
| 17 nM | Nc1nc(=O)n([C@H]2CCC[C@H]2O)c2nc(C3CC3)ccc12 (racemic) [Example 24, 4-amino-7-cyclopropyl-1-((1SR,2RS)-2-hydroxycyclopentyl)pyrido[2,3-d]pyrimidin-2(1H)-one] |
| 22 nM | C[C@@H]1OCC[C@H]1n1c(=O)nc(N)c2ccc(C3CC3)nc21 (racemic) [Example 30, 4-amino-7-cyclopropyl-1-[rac-(2RS,3SR)-2-methyloxolan-3-yl]pyrido[2,3-d]pyrimidin-2-one] |
| < 13 nM | Cc1ncccc1-n1c(=O)nc(N)c2ccc([C@H]3C[C@@H]3F)nc21 (racemic) [Example 36, 4-amino-7-[(1RS,2SR)-2-fluorocyclopropyl]-1-(2-methyl-3-pyridyl)pyrido[2,3-d]pyrimidin-2-one] |
| 150 nM | Cn1nccc1-n1c(=O)nc(N)c2ccc(N3C[C@H]4CC[C@@H]3C4)nc21 (racemic) [Example 57, 4-amino-7-[(1SR,4RS)-3-azabicyclo[2.2.1]heptan-3-yl]-1-(2-methylpyrazol-3-yl)pyrido[2,3-d]pyrimidin-2-one] |
| 14 nM | C[C@@H]1OCCC[C@@H]1n1c(=O)nc(N)c2ccc(C3CC3)nc21 (racemic) [Example 121, 4-amino-7-cyclopropyl-1-[(2SR,3SR)-2-methyltetrahydropyran-3-yl]pyrido[2,3-d]pyrimidin-2-one] |
| 53 nM | C[C@@H]1OCC[C@@H]1n1c(=O)nc(N)c2ccc(C3CC3)nc21 (relative stereo) [Example 89, 4-amino-7-cyclopropyl-1-((cis)-2-methyltetrahydrofuran-3-yl)pyrido[2,3-d]pyrimidin-2(1H)-one] |
| < 13 nM | Cc1c(F)cccc1-n1c(=O)nc(N)c2ccc(C3CC3)nc21 (single isomer, unassigned) [Example 103, (+)-4-amino-7-cyclopropyl-1-(3-fluoro-2-methylphenyl)pyrido[2,3-d]pyrimidin-2 (1H)-one] |
| 110 nM | Cc1c(F)cccc1-n1c(=O)nc(N)c2ccc(C3CC3)nc21 (single isomer, unassigned) [Example 104, (−)-4-amino-7-cyclopropyl-1-(3-fluoro-2-methylphenyl)pyrido[2,3-d]pyrimidin-2 (1H)-one] |
| < 13 nM | Nc1nc(=O)n(-c2ccccc2Cl)c2nc(C3CC3)ccc12 (single isomer, unassigned) [Example 114, (+)-4-amino-1-(2-chlorophenyl)-7-cyclopropylpyrido[2,3-d]pyrimidin-2 (1H)-one] |
| 72 nM | Nc1nc(=O)n(-c2ccccc2Cl)c2nc(C3CC3)ccc12 (single isomer, unassigned) [Example 115, (−)-4-amino-1-(2-chlorophenyl)-7-cyclopropylpyrido[2,3-d]pyrimidin-2 (1H)-one] |
| < 13 nM | Nc1nc(=O)n(-c2cccc(F)c2Cl)c2nc(C3CC3)ccc12 (single isomer, unassigned) [Example 116, (+)-4-amino-1-(2-chloro-3-fluorophenyl)-7-cyclopropylpyrido[2,3-d]pyrimidin-2 (1H)-one] |
| 78 nM | Nc1nc(=O)n(-c2cccc(F)c2Cl)c2nc(C3CC3)ccc12 (single isomer, unassigned) [Example 117, (−)-4-amino-1-(2-chloro-3-fluorophenyl)-7-cyclopropylpyrido[2,3-d]pyrimidin-2 (1H)-one] |
